From US12258329B2 (Merck Sharp & Dohme LLC, priority 2018, dated 2025)

test system: infected PBMCs (VSV-G pseudotyped HIV virus VSV-G/pNLG1-P2A-ΔEnv); experiment: cells; type: cell-based, human; conditions: Homo sapiens, PBMC, read-out: TACK EC50

SMILES	EC50
CCc1nc(C)[nH]c(=O)c1Cn1cnc(C(F)(F)C(F)F)c(Oc2cc(C(F)F)cc(C#N)c2C)c1=O [Example 61, 5-(difluoromethyl)-3-((1-((4-ethyl-2-methyl-6-oxo-1,6-dihydropyrimidin-5-yl)methyl)-6-oxo-4-(1,1,2,2-tetrafluoroethyl)-1,6-dihydropyrimidin-5-yl)oxy)-2-methylbenzonitrile]	485 nM
Cc1nc(C2CC2)c(Cn2cnc(C(F)(F)C(F)F)c(Oc3cc(C(F)F)cc(C#N)c3C)c2=O)c(=O)[nH]1 [Example 62]	406 nM
CCc1nc(C)[nH]c(=O)c1Cn1cnc(C(F)(F)C(F)(F)F)c(Oc2cc(C(F)F)cc(C#N)c2C)c1=O [Example 63, 5-(difluoromethyl)-3-((1-((4-ethyl-2-methyl-6-oxo-1,6-dihydropyrimidin-5-yl)methyl)-6-oxo-4-(perfluoroethyl)-1,6-dihydropyrimidin-5-yl)oxy)-2-methylbenzonitrile]	276 nM
Cc1nc(CF)c(Cn2cnc(C(F)(F)C(F)(F)F)c(Oc3cc(C(F)F)cc(C#N)c3C)c2=O)c(=O)[nH]1 [Example 64, 5-(difluoromethyl)-3-((1-((4-(fluoromethyl)-2-methyl-6-oxo-1,6-dihydropyrimidin-5-yl)methyl)-6-oxo-4-(perfluoroethyl)-1,6-dihydropyrimidin-5-yl)oxy)-2-methylbenzonitrile]	162 nM
Cc1nc(C(F)F)c(Cn2cnc(C(F)(F)C(F)(F)F)c(Oc3cc(C(F)F)cc(C#N)c3C)c2=O)c(=O)[nH]1 [Example 65, 5-(difluoromethyl)-3-((1-((4-(difluoromethyl)-2-methyl-6-oxo-1,6-dihydropyrimidin-5-yl)methyl)-6-oxo-4-(perfluoroethyl)-1,6-dihydropyrimidin-5-yl)oxy)-2-methylbenzonitrile]	382 nM
Cc1nc(C)c(Cn2cnc(C(F)(F)C(F)F)c(Oc3cc(C(F)F)cc(C#N)c3C)c2=O)c(=O)[nH]1 [Example 66, 5-(difluoromethyl)-3-((1-((2,4-dimethyl-6-oxo-1,6-dihydropyrimidin-5-yl)methyl)-6-oxo-4-(1,1,2,2-tetrafluoroethyl)-1,6-dihydropyrimidin-5-yl)oxy)-2-methylbenzonitrile]	262 nM
Cc1ncc(Cn2cnc(C(F)(F)C(F)(F)F)c(Oc3cc(C(F)F)cc(C#N)c3C)c2=O)c(=O)[nH]1 [Example 67, 5-(difluoromethyl)-2-methyl-3-((1-((2-methyl-6-oxo-1,6-dihydropyrimidin-5-yl)methyl)-6-oxo-4-(perfluoroethyl)-1,6-dihydropyrimidin-5-yl)oxy)benzonitrile]	174 nM
Cc1cc(C#N)c(Cl)c(Oc2c(C(F)(F)C(F)F)ncn(Cc3c(C)nc(C)[nH]c3=O)c2=O)c1 [Example 68, 2-chloro-3-((1-((2,4-dimethyl-6-oxo-1,6-dihydropyrimidin-5-yl)methyl)-6-oxo-4-(1,1,2,2-tetrafluoroethyl)-1,6-dihydropyrimidin-5-yl)oxy)-5-methylbenzonitrile]	478 nM
Cc1nc(C)c(Cn2cnc(C(F)(F)C(F)F)c(Oc3cc(C#N)cc(C(F)F)c3)c2=O)c(=O)[nH]1 [Example 69, 3-(difluoromethyl)-5-((1-((2,4-dimethyl-6-oxo-1,6-dihydropyrimidin-5-yl)methyl)-6-oxo-4-(1,1,2,2-tetra-fluoroethyl)-1,6-dihydropyrimidin-5-yl)oxy)benzonitrile]	340 nM
Cc1ncc(Cn2cnc(C(F)(F)C(F)F)c(Oc3cc(C(F)F)cc(C#N)c3C)c2=O)c(=O)[nH]1 [Example 70, 5-(difluoromethyl)-2-methyl-3-((1-((2-methyl-6-oxo-1,6-dihydropyrimidin-5-yl)methyl)-6-oxo-4-(1,1,2,2-tetra-fluoroethyl)-1,6-dihydropyrimidin-5-yl)oxy)benzonitrile]	203 nM
Cc1nc(C)c(Cn2cnc(C(F)(F)C(F)(F)F)c(Oc3c(F)ccc(C#N)c3F)c2=O)c(=O)[nH]1 [Example 71, 3-((1-((2,4-dimethyl-6-oxo-1,6-dihydropyrimidin-5-yl)methyl)-6-oxo-4-(perfluoroethyl)-1,6-dihydropyrimidin-5-yl)oxy)-2,4-difluorobenzonitrile]	149 nM
Cc1nc(C)c(Cn2cnc(C(F)(F)C(F)(F)F)c(Oc3cc(Cl)cc(C#N)c3C)c2=O)c(=O)[nH]1 [Example 72, 5-chloro-3-((1-((2,4-dimethyl-6-oxo-1,6-dihydropyrimidin-5-yl)methyl)-6-oxo-4-(perfluoroethyl)-1,6-dihydro-pyrimidin-5-yl)oxy)-2-methylbenzonitrile]	377 nM
Cc1nc(C)c(Cn2cnc(C(F)(F)C(F)(F)F)c(Oc3cccc(C#N)c3C)c2=O)c(=O)[nH]1 [Example 74, 3-((1-((2,4-dimethyl-6-oxo-1,6-dihydropyrimidin-5-yl)methyl)-6-oxo-4-(perfluoroethyl)-1,6-dihydropyrimidin-5-yl)oxy)-2-methylbenzonitrile]	484 nM
Cc1nc(C)c(Cn2cnc(C(F)(F)C(F)F)c(Oc3c(C)cc(C#N)cc3C)c2=O)c(=O)[nH]1 [Example 75, 4-((1-((2,4-dimethyl-6-oxo-1,6-dihydropyrimidin-5-yl)methyl)-6-oxo-4-(1,1,2,2-tetrafluoroethyl)-1,6-dihydropyrimidin-5-yl)oxy)-3,5-dimethylbenzonitrile]	209 nM
COc1cc(C#N)cc(C)c1Oc1c(C(F)(F)C(F)(F)F)ncn(Cc2c(C)nc(C)[nH]c2=O)c1=O [Example 76, 4-((1-((2,4-dimethyl-6-oxo-1,6-dihydropyrimidin-5-yl)methyl)-6-oxo-4-(perfluoroethyl)-1,6-dihydropyrimidin-5-yl)oxy)-3-methoxy-5-methylbenzonitrile]	498 nM
Cc1nc(C)c(Cn2cnc(C(F)(F)F)c(Oc3c(C)cc(C#N)cc3C)c2=O)c(=O)[nH]1 [Example 77, 4-((1-((2,4-dimethyl-6-oxo-1,6-dihydropyrimidin-5-yl)methyl)-6-oxo-4-(trifluoromethyl)-1,6-dihydropyrimidin-5-yl)oxy)-3,5-dimethylbenzonitrile]	409 nM
Cc1nc(C)c(Cn2cnc(C(F)(F)C(F)(F)F)c(Oc3c(C)cc(C#N)cc3C)c2=O)c(=O)[nH]1 [Example 78, 4-((1-((2,4-dimethyl-6-oxo-1,6-dihydropyrimidin-5-yl)methyl)-6-oxo-4-(perfluoroethyl)-1,6-dihydropyrimidin-5-yl)oxy)-3,5-dimethylbenzonitrile]	156 nM
Cc1nc[nH]c(=O)c1Cn1cnc(C(F)(F)C(F)F)c(Oc2cc(C(F)F)cc(C#N)c2C)c1=O [Example 79, 5-(difluoromethyl)-2-methyl-3-((1-((4-methyl-6-oxo-1,6-dihydropyrimidin-5-yl)methyl)-6-oxo-4-(1,1,2,2-tetra-fluoroethyl)-1,6-dihydropyrimidin-5-yl)oxy)benzonitrile]	460 nM
Cc1nc(C)c(Cn2cnc(C(F)(F)C(F)(F)F)c(Oc3cc(Cl)cc(C#N)c3Cl)c2=O)c(=O)[nH]1 [Example 80, 2,5-dichloro-3-((1-((2,4-dimethyl-6-oxo-1,6-dihydropyrimidin-5-yl)methyl)-6-oxo-4-(perfluoroethyl)-1,6-dihydropyrimidin-5-yl)oxy)benzonitrile]	340 nM
Cc1nc(C)c(Cn2cnc(C(F)(F)C(F)F)c(Oc3cc(Cl)cc(C#N)c3F)c2=O)c(=O)[nH]1 [Example 81, 5-chloro-3-((1-((2,4-dimethyl-6-oxo-1,6-dihydropyrimidin-5-yl)methyl)-6-oxo-4-(1,1,2,2-tetrafluoroethyl)-1,6-dihydropyrimidin-5-yl)oxy)-2-fluorobenzonitrile]	156 nM
Cc1nc(C)c(Cn2cnc(C(F)(F)C(F)(F)F)c(Oc3cc(Br)cc(C#N)c3Cl)c2=O)c(=O)[nH]1 [Example 82, 5-bromo-2-chloro-3-((1-((2,4-dimethyl-6-oxo-1,6-dihydro-pyrimidin-5-yl)methyl)-6-oxo-4-(perfluoroethyl)-1,6-dihydro-pyrimidin-5-yl)oxy)benzonitrile]	531 nM
Cc1nc(C)c(Cn2cnc(C(F)(F)C(F)(F)F)c(Oc3cc(C(F)F)cc(C#N)c3C)c2=O)c(=O)[nH]1 [Example 83]	252 nM
Cc1nc(C)c(Cn2cnc(C(F)(F)C(F)(F)F)c(Oc3cc(C#N)cc(C(F)F)c3)c2=O)c(=O)[nH]1 [Example 84]	291 nM
Cc1nc(C)c(Cn2cnc(C(F)(F)C(F)(F)F)c(Oc3cccc(C#N)c3F)c2=O)c(=O)[nH]1 [Example 85, 3-((1-((2,4-dimethyl-6-oxo-1,6-dihydropyrimidin-5-yl)methyl)-6-oxo-4-(perfluoroethyl)-1,6-dihydropyrimidin-5-yl)oxy)-2-fluorobenzonitrile]	441 nM
Cc1nc(C)c(Cn2cnc(C(F)(F)C(F)(F)F)c(Oc3cc(Br)cc(C#N)c3)c2=O)c(=O)[nH]1 [Example 86, 3-bromo-5-((1-((2,4-dimethyl-6-oxo-1,6-dihydropyrimidin-5-yl)methyl)-6-oxo-4-(perfluoroethyl)-1,6-dihydro-pyrimidin-5-yl)oxy)benzonitrile]	473 nM
Cc1nc(C)c(Cn2cnc(C(F)(F)C(F)(F)F)c(Oc3cc(Cl)cc(C#N)c3F)c2=O)c(=O)[nH]1 [Example 87, 5-chloro-3-((1-((2,4-dimethyl-6-oxo-1,6-dihydropyrimidin-5-yl)methyl)-6-oxo-4-(perfluoroethyl)-1,6-dihydropyrimidin-5-yl)oxy)-2-fluorobenzonitrile]	218 nM
Cc1cc(C#N)cc(Oc2c(C(F)(F)C(F)(F)F)ncn(Cc3c(C)nc(C)[nH]c3=O)c2=O)c1 [Example 88]	397 nM
Cc1nc(C)c(Cn2cnc(C(F)(F)F)c(Oc3cc(Br)cc(C#N)c3Cl)c2=O)c(=O)[nH]1 [Example 89, 5-bromo-2-chloro-3-((1-((2,4-dimethyl-6-oxo-1,6-dihydro-pyrimidin-5-yl)methyl)-6-oxo-4-(trifluoromethyl)-1,6-dihydropyrimidin-5-yl)oxy) benzonitrile]	434 nM
Cc1nc(C)c(Cn2cnc(C(F)(F)F)c(Oc3cc(Cl)cc(C#N)c3Cl)c2=O)c(=O)[nH]1 [Example 90, 2,5-dichloro-3-((1-((2,4-dimethyl-6-oxo-1,6-dihydropyrimidin-5-yl)methyl)-6-oxo-4-(trifluoromethyl)-1,6-dihydropyrimidin-5-yl)oxy) benzonitrile]	489 nM
